Several values for one entry are separate records, joined by “and”; a condition that tells them apart may be missing. Equal values may be shown once.
The molecules below were run against Nonstructural protein 3 (Zika virus, UniProt A0A024AXB9) (assay: Functional biochemical assay to identify treatments for viral infectious disease that targets Zika NS2B-NS3 protease. Utilizing a direct enzyme activity measurement method, reading the fluorescence intensity is used to characterize the relative potency of inhibitors as IC50.).
Sequence of Nonstructural protein 3 (A0A024AXB9 whole entry): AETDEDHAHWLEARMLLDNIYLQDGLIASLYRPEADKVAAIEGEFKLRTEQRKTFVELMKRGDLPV
Parameters: species or system PRVABC59

SMILES	IC50
CC(C)NC(=O)[C@H](Nc1ccc2c(c1)CNC2)c1cc(Cl)cc2[nH]c(-c3ccccc3)nc12	42 nM and 19 nM and 54 nM and 33 nM and 16 nM and 69 nM
Cc1ncc(-c2cc(F)cc(C(=O)Nc3ccc4c(c3)CNC4)c2)o1	152 nM
O=C(Nc1cc(-c2cccnc2)ccn1)c1cc2n(n1)CCO2	> 25000 nM
CO[C@H]1C[C@H](n2cc3c(C(=O)Nc4ccc5c(c4)CNC5)cc(Cl)cc3n2)C1	219 nM
Cc1c(C(=O)Nc2cccc([C@H]3CCOC3)c2)cc(C2CC2)n1C	> 25000 nM
O=C(Nc1cc(-c2cccnc2)ccn1)c1csc(C[C@H]2CCNC2)n1	> 25000 nM
O=C(Nc1cc(-c2cccnc2)ccn1)c1nc(C2CC2)co1	> 25000 nM
O=C(Nc1cc(-c2cccnc2)ccn1)c1cc2n(n1)CCC2	> 25000 nM
CNC(=O)[C@H](Nc1cc(Cl)cc2[nH]ncc12)c1ccc2c(c1)CNC2	3990 nM
Cc1c(C(=O)Nc2cc(-c3cccnc3)ccn2)cc(C2CCCC2)n1C	> 25000 nM
C=CC[C@H]1NCc2cc(N[C@H](C(=O)NC(C)C)c3cccc4[nH]ncc34)ccc21	> 25000 nM
COCCNC(=O)[C@H](Nc1cccc([C@H]2CCOC2)c1)c1cc(Cl)cc2[nH]ncc12	> 25000 nM
O=C(Nc1cc(-c2cccnc2)ccn1)c1csc(C[C@H]2CCCNC2)n1	> 25000 nM
Cc1c(C(=O)Nc2cc(-c3cccnc3)ccn2)cnn1C1CC1	> 25000 nM
O=C(Nc1ccc2c(c1)CN[C@H]2C[C@H](O)CO)c1cc(F)cc2[nH]ncc12	77 nM and 69 nM
CC(C)n1cc(C(=O)Nc2cc(-c3cccnc3)ccn2)c2ccccc21	> 25000 nM
O=C(Nc1cc([C@H]2CCOC2)ccn1)c1cc(F)cc2[nH]ccc12	> 25000 nM
O=C(Nc1cc(-c2cccnc2)ccn1)c1cccc(C2CC2)c1	> 25000 nM
CNC(=O)[C@H](Nc1ccc2c(c1)CNC2)c1cccc2[nH]c(C(F)(F)F)nc12	3420 nM
O=C(NCC(F)F)[C@H](Nc1ccc2c(c1)CNC2)c1cc(F)cc2[nH]ccc12	199 nM
O=C(Nc1ccc2c(c1)CNC2)c1cc(Cl)cc2[nH]c(-c3cn[nH]c3)cc12	> 25000 nM
NC[C@H]1OCCc2sc(C(=O)Nc3cc(-c4cccnc4)ccn3)cc21	> 25000 nM
O=C(Nc1ccc2c(c1)CNC2)c1cc(Cl)cc2[nH]c(COc3ccccn3)nc12	210 nM
O=C1OCc2ccc(NC(=O)c3cc(F)cc4[nH]ncc34)cc21	> 25000 nM

SMILES	IC50
CN(C)c1nc(-c2cc(F)cc(C(=O)Nc3ccc4c(c3)CNC4)c2)cs1	146 nM
O=C(Nc1cc(-c2cccnc2)ccn1)c1cnn2c1CCC2	> 25000 nM
CCCn1cc2c(C(=O)Nc3ccc4c(c3)CNC4)cc(Cl)cc2n1	67 nM and 36 nM
O=C(NCCC1CC1)[C@H](Nc1ccc2c(c1)CNC2)c1cc(Cl)cc(C2CC2)c1	74 nM and 49 nM
O=C(Nc1cc([C@H]2CCOC2)ccn1)c1ccc2scnc2c1	> 25000 nM
O=C(Nc1cc([C@H]2CCOC2)ccn1)c1cc(Cl)cc2c1CCC2	> 25000 nM
Cc1c(CN)c(C(=O)Nc2cc(-c3cccnc3)ccn2)nn1C	> 25000 nM
Cc1c(C(=O)Nc2cc(-c3cccnc3)ccn2)cc(-c2ccccc2)n1C	> 25000 nM
Cc1cc(C(=O)Nc2cc(-c3cccnc3)ccn2)c(C)n1C	> 25000 nM
O=C(Nc1cc(-c2cccnc2)ccn1)c1nnc(C2CC2)s1	> 25000 nM
O=C(Nc1ccc2c(c1)C(=O)OC2)c1ccc2c(c1)CNC2	> 25000 nM
O=C(Nc1cc(-c2cccnc2)ccn1)c1cn([C@H]2CCCNC2)nn1	> 25000 nM
O=C(Nc1ccc2c(c1)CS(=O)(=O)C2)c1cc(Cl)cc2[nH]ncc12	> 25000 nM
Cc1c(C(=O)Nc2cc(SC3COC3)ccn2)cc(C2CC2)n1C	> 25000 nM
O=S(=O)(Nc1ccc2c(c1)CNC2)c1cccc2[nH]ncc12	> 25000 nM
O=C(Nc1ccc2c(c1)CNC2)c1cc(F)cc(-c2cccnc2)c1	90 nM and 87 nM
O=C(NCC(F)F)[C@H](Nc1ccc2c(c1)CNC2)c1cc(Br)cc2[nH]ccc12	77 nM and 44 nM
O=C1Cc2c(cccc2C(=O)Nc2cc([C@H]3CCOC3)ccn2)N1	> 25000 nM
O=C(Nc1ccc2c(c1)CNC2)c1cc(Cl)cc2[nH]c(-c3cnccc3O)nc12	395 nM
O=C(Nc1cc(Br)c2c(c1)CNC2)c1cc(F)cc2[nH]ncc12	27 nM and 15 nM
CO[C@H](C)Cn1cc2c(C(=O)Nc3ccc4c(c3)CNC4)cc(Cl)cc2n1	364 nM
O=C(Nc1cc(-c2cccnc2)ccn1)c1ccc(C2CC2)cc1	> 25000 nM
O=C(Nc1ccc2c(c1)CNC2)c1cc(C(F)(F)F)c2cn[nH]c2n1	> 25000 nM
O=C(NCC(F)F)[C@H](Nc1ccc2c(c1)CNC2)c1cc(F)cc2[nH]ncc12	58 nM and 37 nM

SMILES	IC50
O=C(Nc1ccc2c(c1)CNC2)c1cc(F)cc(-c2c[nH]c(=O)c(F)c2)c1	73 nM and 43 nM
COc1cc(C(=O)Nc2ccc3c(c2)CNC3)cc2cnn(C)c12	> 25000 nM
Cc1oc(C2CC2)nc1C(=O)Nc1cc(-c2cccnc2)ccn1	> 25000 nM
Cc1c(C(=O)Nc2cccc(-c3cccnc3)c2)cc(C2CC2)n1C	> 25000 nM
CNC(=O)[C@H](Nc1cccc([C@H]2CCOC2)c1)c1cc(C2CC2)n(C)n1	> 25000 nM
CC(C)NC(=O)[C@H](Nc1ccc2c(c1)CNC2)c1cccc2cn[nH]c12	10900 nM
NCc1cc(Cl)cc(C(=O)Nc2cc([C@H]3CCOC3)ccn2)c1	> 25000 nM
O=C(Nc1cc2c(cc1C1CC1)CNC2)c1cc(F)cc2[nH]ncc12	92 nM and 46 nM
Cc1c(C(=O)Nc2cc(-c3cccnc3)ccn2)cc(C(C)(C)C)n1C	> 25000 nM
Cc1c(C(=O)Nc2ccnc(O[C@H]3CCOC3)c2)cc(C2CC2)n1C	> 25000 nM
O=C(NCC1CCCCC1)[C@H]1CCCN1C(=O)Nc1ccc2c(c1)CNC2	> 25000 nM
O=C(NCC(F)F)[C@H](Nc1ccc2c(c1)CNC2)c1cc(Cl)cc2[nH]ncc12	291 nM
O=C(Nc1cc2c(c(C3=CC[C@H](O)CC3)c1)CNC2)c1cc(Cl)cc2[nH]ncc12	65 nM and 41 nM
COCCNC(=O)[C@H](Nc1cccc([C@H]2CCOC2)c1)c1cc(F)cc2[nH]ccc12	> 25000 nM
CNC(=O)[C@H](Nc1ccc2c(c1)CNC2)c1cc(Cl)cc2c1OCC2	256 nM
CC(C)NC(=O)[C@H](Nc1ccc2c(c1)CNC2)c1cc(F)cc2[nH]ccc12	1030 nM
C=CC[C@H]1NCc2cc(NC(=O)c3cc(F)cc4c3CC(=O)N4)ccc21	156 nM
O=C(Nc1cc([C@H]2CCOC2)ccn1)c1cc(Br)cc2[nH]ccc12	> 25000 nM
NS(=O)(=O)c1cc(F)cc(C(=O)Nc2ccc3c(c2)CNC3)c1	1490 nM
O=C(Nc1ccc2c(c1)CNC2)c1ccc2ccncc2c1	13900 nM
O=C(Nc1ccc2c(c1)CNC2)c1cc(Cl)cc2nn(C3CCC3)cc12	176 nM
O=C(Nc1ccc2c(c1)CNC2)c1cc(F)cc2c1CCNC2	115 nM
O=C(Nc1ccc2c(c1)CNC2)c1n[nH]c2ccc(F)cc12	16900 nM
CSCCNC(=O)[C@H](Nc1ccc2c(c1)CNC2)c1cc(Cl)cc(C2CC2)c1	62 nM and 49 nM

SMILES	IC50
CS(=O)(=O)N1CC[C@]2(C1)C(=O)Nc1cccc(C(=O)Nc3ccc4c(c3)CNC4)c12	369 nM
COc1ccc([C@H]2C[C@H](C)CN2C(=O)Nc2ccc3c(c2)CNC3)cc1	> 25000 nM
Cc1c(C(=O)Nc2cc(-c3cccnc3)ccn2)cc(CC(C)(C)C)n1C	> 25000 nM
O=C(Nc1ccc2c(c1)CNC2)c1cc(F)cc(-c2ccnn2CC2CC2)c1	1070 nM
CC(C)(C)c1noc2nc(C(=O)Nc3ccc4c(c3)CNC4)ccc12	> 25000 nM
O=C(Nc1ccc2c(c1)CNC2)c1cc(F)cc2nn(-c3ccccn3)nc12	111 nM and 130 nM
O=C(Nc1cc(-c2cccnc2)ccn1)c1c[nH]c2ncccc12	> 25000 nM
COCCCNC(=O)[C@H](Nc1ccc2c(c1)CNC2)c1cc(Cl)cc(C2CC2)c1	88 nM and 71 nM
O=C(Nc1cc(-c2cccnc2)ccn1)c1cc(C2CC2)[nH]n1	> 25000 nM
O=C(Nc1cc(-c2cccnc2)ccn1)c1cc2n(n1)CCS2(=O)=O	> 25000 nM
O=C1OCc2ccc(NC(=O)c3cc(F)cc4c3CCNC4)cc21	> 25000 nM
Cc1c(C(=O)Nc2cccc(-c3ccccc3)c2)cc(C2CC2)n1C	> 25000 nM
O=C(Nc1ccc2c(c1)CNC2)c1ccc2c(Br)csc2c1	2190 nM
C=C[C@H]1NCc2cc(NC(=O)c3cc(F)cc4[nH]ncc34)ccc21	359 nM
Cc1c(C(=O)Nc2cc(-c3cccnc3)ccn2)cc(C2CCC2)n1C	> 25000 nM
O=C(Nc1cc(-c2cccnc2)ccn1)c1cc2n(n1)CC(F)(F)C2	> 25000 nM
O=C(Nc1ccc2c(c1)CNC2)c1cc(F)cc(-c2cnc(C3CC3)s2)c1	56 nM and 43 nM
O=C(Nc1cc(-c2cccnc2)ccn1)c1cc2n(n1)CC1(CC1)C2	> 25000 nM
CC(C)(C)OC(=O)N1Cc2ccc(NC(=O)c3ccc4c(Br)csc4c3)cc2C1	> 25000 nM
Nc1nc2c(Br)cc(C(=O)Nc3ccc4c(c3)CNC4)cc2s1	5070 nM
Cc1c(C(=O)Nc2cc(-c3ccccc3)ccn2)cc(C2CC2)n1C	> 25000 nM
Cc1cc(C(=O)Nc2cc(-c3cccnc3)ccn2)nn1CCN	> 25000 nM
